Series [1] deals with T1, human cannabinoid CB1 receptor (Homo sapiens, UniProt P21554).
T1 construct: purchased Perkin Elmer Inc., Singapore Pte; Ltd. RBHCB1M400UA; host or cells: HEK293-EBNA cell membranes (overexpressing)
As to the kind of experiment: biochemical. The settings on record: for Ki: Cheng–Prusoff from IC50, [3H]CP-55940 0.5 nM, read-out: CB1 Ki; for Ki / IC50: mean ± SEM n = 3; for IC50: [3H]CP-55940 0.5 nM, hCB1 HEK293-EBNA membranes, read-out: CB1 IC50; for inhibition at 10 µM: displacement of [3H]CP-55940 at 10 μM compound, read-out: CB1 Max Tested µM (% Displacement). Type of series: binding.

Series [2] addresses T2, human recombinant cannabinoid CB2 receptor (Homo sapiens, UniProt P34972).
T2 construct: purchased Perkin Elmer Inc., Singapore Pte; Ltd. RBXCB2M400UA; host or cells: HEK293-EBNA cell membranes (overexpressing)
As to the kind of experiment: CB2 radioligand displacement binding assay ([3H]CP-55940). The settings on record: for Ki: Cheng–Prusoff from IC50, [3H]CP-55940 0.5 nM; for Ki / IC50: mean ± SEM n = 3; for IC50: [3H]CP-55940 0.5 nM, hCB2 HEK293-EBNA membranes; for inhibition at 10 µM: displacement of [3H]CP-55940 at 10 μM compound, read-out: CB2 Max Tested µM (% Displacement). A general note: Displacement assays read how much labelled ligand stays bound in the presence of the test substance.

The subject of another series is HEK293 cells. As to the kind of experiment: cells. The settings on record: for cytotoxicity at 0.1 µM: read-out: % Toxicity HEK293T, 0.1 μM, 72 h, MTT, n = 3; for cytotoxicity in HEK293: Figure 4, MTT; for IC50: read-out: IC50 toxicity HEK293T; for % Toxicity HEK293T: 0.1 μM, n = 3. Here is the method: (§1) HEK293, U87MG, and HL-60 cell lines were seeded in a flat-bottom 96-well plate at a density of 10,000 cells per well. […] All compounds were incubated at 0.1 μM in 200 μL of culture medium supplemented with 10% FBS, in a flat-bottom 96-well plate at a density of 10,000 cells per well, at 37 °C for 72 h. Next, 20 μL of a 5 mg/mL MTT solution was added, and the cells were incubated at 37 °C for 4 h. Then, they were solubilized with 10% sodium dodecyl sulfate (SDS) in 0.1 mM HCl and incubated overnight at 37 °C. Formazan absorbance of each well was measured using the EPOCH microplate reader (Biotek, Winooski, VT, USA) at a wavelength of 570 nm. […]
(§2) promyelocytic leukemia cells (HL-60) were maintained at 5% CO2 and 37 °C in DMEM, EMEM and RPMI medium, respectively containing 10% Fetal Bovine Serum and 100 U/mL penicillin and 100 […]
(§3) Cell viability: ([MTT - (3-(4,5-dimethylthiazol-2-yl)-2,5-diphenyltetrazolium bromide) - formazan] HEK293, U87MG, and HL-60 cells were first quantified to determine the exact number to be used in […]
(§4) with the Beer-Lambert(1).
(§5) HEK293, U87MG and HL-60 cell lines were seed in a flat-bottom 96-wells plate at a density of 10,000 […]
(§6) concentrations (0.001 μM to 10 μM) in 200 μL of respective culture medium supplemented with 10% fetal bovine serum (FBS), at 37 °C for 72 hours. Subsequently, 20 μL of 5 mg/mL MTT solution was added to each well, and cells were incubated at 37 °C for 4 h. The resulting formazan crystals were then solubilized with 10% sodium dodecyl sulfate (SDS) in 0.1 mM HCl, followed by overnight incubation at 37 °C. Untreated cells were used as the control, 0.1% of dimethyl sulfoxide (DMSO) as the vehicle control, and 0.2 % of Triton X-100 as a positive control for cell death. IC 50 toxicity values […]
(§7) same conditions described in the previous paragraph. […]
(§8) determined IC50. The stimulation with both CB ligands was performed simultaneously.
(§9) All compounds were incubated at 0.1 μM in 200 μL of culture medium supplemented with 10% FBS, in a flat-bottom 96-well plate at a density of 10,000 cells per well, at 37°C for 72 hours. Next, 20 μL of a 5 mg/mL MTT solution was added, and the cells were incubated at 37°C for 4 hours. Then, they were solubilized with 10% sodium dodecyl sulfate (SDS) in 0.1 mM HCl and incubated overnight at 37°C. Formazan absorbance of each well was measured using the EPOCH microplate reader (Biotek, USA) at a wavelength of 570 nm.
(§10) [1]Mosorov, V., The Lambert-Beer law in time domain form and its application.

The next series relates to HL-60 cells. As to the kind of experiment: cells. The settings on record: for % Toxicity HL-60: 0.1 μM, n = 3; for cytotoxicity at 0.1 µM: read-out: % Toxicity HL-60; for cytotoxicity in HL-60: Figure 4, MTT. How it is done:
as §1, §2, §3, §4, §5, §6, §7, §8, §9, §10

The subject of the next series is U87MG cells. In words: cells. The following applies: for cytotoxicity at 0.1 µM: read-out: % Toxicity U87MG, 0.1 μM, 72 h, MTT, n = 3; for cytotoxicity in U87MG: Figure 4, MTT, 0.001 μM to 10 μM. Here is the method:
as §1, §2, §3, §4, §5, §6, §7, §8, §9, §10

The mark [3] stands for this setting: read-out: IC50 toxicity U87MG, MTT, 72 h.
Where [4] appears, read: Homo sapiens, U-87 MG, 72 h, read-out: IC50 toxicity U87MG, MTT, 72 h.

Values joined by “and” are separate entries in the source; they are usually repeats but may differ in a detail not shown here. Equal values may be shown once. Read-outs that look alike come from different tables or passages of the source. Bounds are passed on as bounds.

T1 sequence (P21554 whole entry): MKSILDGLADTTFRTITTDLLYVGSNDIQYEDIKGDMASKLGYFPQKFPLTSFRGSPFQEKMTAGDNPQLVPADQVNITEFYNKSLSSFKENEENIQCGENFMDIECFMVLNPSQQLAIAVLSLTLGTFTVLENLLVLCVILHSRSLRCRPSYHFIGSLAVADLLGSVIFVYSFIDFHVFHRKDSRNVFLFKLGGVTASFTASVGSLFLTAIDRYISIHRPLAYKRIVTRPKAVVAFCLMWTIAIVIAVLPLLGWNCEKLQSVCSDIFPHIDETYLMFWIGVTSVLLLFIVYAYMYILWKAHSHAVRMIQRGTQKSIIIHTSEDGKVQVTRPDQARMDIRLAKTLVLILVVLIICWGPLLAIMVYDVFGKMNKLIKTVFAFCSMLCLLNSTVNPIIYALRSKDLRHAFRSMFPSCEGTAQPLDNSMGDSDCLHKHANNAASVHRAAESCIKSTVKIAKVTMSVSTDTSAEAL
T2 sequence (P34972 whole entry): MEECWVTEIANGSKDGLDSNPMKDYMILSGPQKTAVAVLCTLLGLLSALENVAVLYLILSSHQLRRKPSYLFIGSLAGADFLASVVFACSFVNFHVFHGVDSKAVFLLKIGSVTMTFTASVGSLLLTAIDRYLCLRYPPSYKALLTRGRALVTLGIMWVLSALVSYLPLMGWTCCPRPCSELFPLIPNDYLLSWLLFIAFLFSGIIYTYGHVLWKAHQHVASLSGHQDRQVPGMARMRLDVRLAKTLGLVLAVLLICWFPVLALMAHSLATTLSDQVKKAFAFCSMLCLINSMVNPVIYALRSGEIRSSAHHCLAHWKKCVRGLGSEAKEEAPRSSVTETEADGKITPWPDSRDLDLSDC

In general, Ki refers to a measure of affinity in units of concentration, obtained from inhibition or displacement. The term IC50 denotes the concentration needed to halve the response being measured. For `COc1cccc(-c2nc3ccc(Cl)cc3n2C(=O)c2cccc3ccccc23)c1` [4b′], the Ki in series [1] was over 10 µM; in series [2], ~4.46 µM and 4.46 µM. Moreover, the half-inhibitory concentration (IC50) is over 10 µM in series [1] and 6.76 ± 3.09 µM in series [2]. The results for the inhibition at 10 µM in series [1] and in series [2] were 43% and 58%, respectively. The cytotoxicity at 0.1 µM in the series on HEK293 cells (Homo sapiens, HEK293, 72 h) came out at 50 ± 11%; in the series with HL-60 cells (Homo sapiens, HL-60, 72 h), 52%; in the series on U87MG cells (Homo sapiens, U-87 MG, 72 h), 39 ± 20%. For the same compound, in the series on HL-60 cells (72 h, MTT), the “% Toxicity HL-60” value came to 52 ± 13%.
As for `COc1ccc(C(=O)c2c(C)n(CCN3CCOCC3)c3cc(I)ccc23)cc1` [AM630, reference compound], the “cytotoxicity in HEK293” value in the series on HEK293 cells (0.001 μM to 10 μM, 72 h) was “non-toxic”. Besides, the half-maximal inhibitory concentration (IC50) in the series on HEK293 cells (MTT, 72 h, 0.001 μM to 10 μM) was over 10 µM; with HL-60 cells (read-out: IC50 toxicity HL-60, MTT, 72 h, 0.001 μM to 10 μM) it was over 10 µM; in the series on U87MG cells (setting [3]), over 10 µM. In the series on HL-60 cells (0.001 μM to 10 μM, 72 h), the “cytotoxicity in HL-60” value is on record as “non-toxic”. Also, the “cytotoxicity in U87MG” value in the series with U87MG cells (72 h) is “non-toxic”.
Take `O=C(c1cccc2ccccc12)n1c(-c2ccon2)nc2cc(Cl)ccc21` [Compound 4d]: in series [1], the Ki was ~1.86 µM and 1.86 µM; the IC50 came to 7.58 ± 4.21 µM; the inhibition at 10 µM was over 55%. Moreover, in series [2], the inhibition constant Ki is over 10 µM, the half-maximal inhibitory concentration (IC50) was over 10 µM and the inhibition at 10 µM came out at 15%. In addition, in the series on HEK293 cells (72 h, MTT), the “% Toxicity HEK293T” value amounted to 10 ± 9%. In addition, the cytotoxicity at 0.1 µM in the series with HEK293 cells (Homo sapiens, HEK293, 72 h) amounted to 10%. The “% Toxicity U87MG” value in the series on U87MG cells (0.1 μM, 72 h, MTT, n = 3) is given as 50 ± 14%. In addition, the cytotoxicity at 0.1 µM in the series with U87MG cells (Homo sapiens, U-87 MG, 72 h) amounted to 50%.
For the compound `O=C(c1cccc2ccccc12)n1c(-c2ccco2)nc2ccc(Cl)cc21` [Compound 4f′], the Ki in series [1] and in series [2] was over 10 µM in each case. In addition, the IC50 in series [1] and in series [2] was over 10 µM in each case. For the same compound, the inhibition at 10 µM in series [1] was 47.5%; in series [2], 53.2%. Further, the “% Toxicity HEK293T” value in the series with HEK293 cells (72 h, MTT) worked out at 50 ± 23%. Further, the cytotoxicity at 0.1 µM with HEK293 cells (Homo sapiens, HEK293, 72 h) came to 50%; in the series with HL-60 cells (Homo sapiens, HL-60, 72 h), 10%. Also, the “% Toxicity HL-60” value in the series with HL-60 cells (72 h, MTT) amounted to 10 ± 19%.
`O=C(c1cccc2ccccc12)n1c(-c2ccco2)nc2cc(F)ccc21` [Compound 5f, (5-fluoro-2-(furan-2-yl)-1H-benzo[d]imidazol-1-yl)(naphthalen-1-yl)methanone]: in series [1], the inhibition constant (Ki) is ~1.48 µM and 1.48 µM; the half-inhibitory concentration (IC50) was found to be 6.03 ± 4.09 µM; the inhibition at 10 µM was over 55%. In series [2], the Ki was over 10 µM, the IC50 was over 10 µM and the inhibition at 10 µM was 54.5%. In addition, the “IC50 U87MG cells as printed in the figure picture” value in the series with U87MG cells (MTT dose–response curve, unit not given) is 8.963 x 10^-8.
As for `O=C(c1cccc2ccccc12)n1c(-c2ccco2)nc2ccc(F)cc21` [Compound 5f′, (6-fluoro-2-(furan-2-yl)-1H-benzo[d]imidazol-1-yl)(naphthalen-1-yl)methanone], in series [1], the inhibition constant Ki is ~2.12 µM and 2.12 µM; the IC50 was determined as 8.65 ± 3.11 µM; the inhibition at 10 µM was over 55%. For the same compound, in series [2], the Ki is over 10 µM, the IC50 was over 10 µM and the inhibition at 10 µM was 47%. In addition, the “% Toxicity HL-60” value in the series with HL-60 cells (72 h, MTT) is “does not show any toxicity”. For the same compound, the cytotoxicity at 0.1 µM with U87MG cells (Homo sapiens, U-87 MG, 72 h) came to 66%. In addition, in the series with U87MG cells (setting [4]), the concentration for half-maximal inhibition (IC50) came out at 0.089 µM.
Take `Cc1c(C(=O)c2cccc3ccccc23)c2cccc3c2n1C(CN1CCOCC1)CO3` (centres unmarked) [WIN-55212-2, reference compound]: in series [2] (10 μM unlabeled WIN-55212-2, cannabinoid receptors), the “displacement of specific radioligand binding (nonspecific binding definition), CB2” value is “at least 84%”. In the series on HEK293 cells (0.001 μM to 10 μM, 72 h), the “cytotoxicity in HEK293” value was “harmlessness”. In addition, the half-inhibitory concentration (IC50) was over 10 µM in the series with HEK293 cells (Homo sapiens, HEK293, 72 h); 1.39 µM in the series on HL-60 cells (Homo sapiens, HL-60, 72 h, read-out: IC50 toxicity HL-60); 1.38 µM with HL-60 cells (Homo sapiens, HL-60, read-out: IC50 HL-60 cells as printed in the figure picture); 0.2 µM in the series on U87MG cells (setting [4]); 0.25 µM with U87MG cells (setting [3]). The “cytotoxicity in HL-60” value with HL-60 cells (0.001 μM to 10 μM, 72 h) is on record as “exhibits cytotoxicity”. Besides, the “cytotoxicity in U87MG” value with U87MG cells (72 h) is “exhibits cytotoxicity”. For the same compound, the cytotoxicity at 0.1 µM in the series on U87MG cells (Homo sapiens, U-87 MG, 72 h) is about 30%.
